Tests used:
[1] = Plasma antioxidant reserve (PAR); format: in vivo, human; details: for PAR, Endpoint: end of quercetin phase
Experimental: Blood samples were collected after blood pressure was measured. Blood was collected by antecubital venipuncture from fasting subjects into sodium heparin tubes (Becton Dickinson, N.J., USA). Collected blood was immediately stored on ice and centrifuged within 10 minutes at 4° C. for 15 minutes at 2500 g as previously described (36). […] Ex-vivo amplification of isoprostanes was accomplished by introducing a source of free radicals (3-morpholinosydnonimine, SIN-1) into the blood plasma to induce oxidation of lipoproteins (39). Uric acid, a major water soluble antioxidant present in plasma, was removed using uricase prior to introduction of SIN-1 so that any protection provided by other antioxidants could be measured. Therefore, PAR measures the non-urate antioxidant capacity, or antioxidant power, of blood.

[2] = Trial: fasting blood lipids and glucose (Cholestech LDX); format: in vivo, human; details: after quercetin supplementation compared to placebo (data not shown)
Experimental: During each patient visit whole blood (˜50 μL) was obtained from a digit puncture to determine blood lipids (LDL, VLDL, HDL, total cholesterol) and glucose using a clinical Cholestech LDX blood analyzer (37). Prior to each patient visit, first morning urine was collected, brought to the laboratory, and stored at −80° C. for later analysis of isoprostane concentrations.

8-isoprostane F2α = assay: Urinary 8-isoprostane F2α, enzyme-linked immunoassay; format: in vivo, human; details: for Urinary Isoprostane, Endpoint: end of quercetin phase
Experimental: During each patient visit whole blood (˜50 μL) was obtained from a digit puncture to determine blood lipids (LDL, VLDL, HDL, total cholesterol) and glucose using a clinical Cholestech LDX blood analyzer (37). Prior to each patient visit, first morning urine was collected, brought to the laboratory, and stored at −80° C. for later analysis of isoprostane concentrations. Urine 8-isoprostane F2α is a measure of lipid peroxidation and can be used to estimate oxidative stress in humans (45-47). Quantification of 8-isoprostane F2α (also known as 8-epi-PGF2α or 8-iso-PGF2α) in urine samples was performed using a competitive enzyme-linked immunoassay kit (Cayman Chemical, Ann Arbor, Mich.) according to the manufacturers instructions.

PKC α, βI, ε, δ = assay: PKC isoform activation in left ventricle, Western blots; format: in vivo, rat; details: between all groups (SH, AAC, SHQ, AACQ)
From the text: Following the experimental period, rats were sacrificed, left ventricles were homogenized, and cytosolic & membrane cell fractions isolated using differential centrifugation as previously described (Jalili et al., 1999). Immunobloting using standard protocols was used to assess PKC distribution. […] Increased abundance in membrane bound fractions is indicative of PKC activation.
Western blotting, transfer and densitometry: Electrophoresis and transfer of proteins to PVDF membranes were done as previously described (18, 19). Primary antibody directed against PKC α, βI, βII, δ, and ε (Santa Cruz Biotechnology, Santa Cruz, Calif.) were incubated overnight at 4° C. in a 1:1000 dilution. Antibodies directed against phospho ERK 1/2, phospho JNK, ph c-Raf (Cell Signal Technology, Beverly, Mass.), and phospho PKC P (Santa Cruz Biotechnology, Santa Cruz, Calif.), were incubated at a 1:1000 dilution for 48 h at 4° C. in 5% BSA Tris buffer with 0.05% Tween-20. Secondary antibody conjugated to horseradish peroxidase (goat anti rabbit, (Cell Signal Technology, Beverly, Mass.)) was incubated for 1 h at 1:10,000 dilution. Signals were visualized by enhanced chemiluminescence (Cell Signal Technology, Beverly, Mass.). Relative band density of immunoblots on film were measured with a scanner using NIH 1.63 image software (National Institutes of Health, Rockville, Md.).

[3] = test system: mice with surgically induced abdominal aortic constriction; details: oral, 5 day, 120 mg/kg/day (Wang et al., 1999); cited from earlier work
[4] = Ferric reducing antioxidant power (FRAP) of plasma; format: in vivo, human; details: for FRAP, Endpoint: end of quercetin phase
Experimental: Blood samples were collected after blood pressure was measured. Blood was collected by antecubital venipuncture from fasting subjects into sodium heparin tubes (Becton Dickinson, N.J., USA). Collected blood was immediately stored on ice and centrifuged within 10 minutes at 4° C. for 15 minutes at 2500 g as previously described (36).
FRAP measures the ability of an antioxidant to reduce Fe^3+ to Fe^2+ (40), and is an index of plasma antioxidant potential in hypertensive patients (41-44). This assay was done as previously described (39). Briefly, plasma samples were diluted 1:2 with phosphate buffered saline, followed by addition of a reagent solution containing 0.8 mmol/L 2,4,6-tri-(2-pyridyl)-s-tirazine and 1.7 mmol/l FeCl3.6-H2O. Samples were then incubated at 37° C. for 15 min and the absorbance at 593 nm was recorded in a plate reader (Molecular Devices, Spectramax 340 pc).

[5] = Trial: body mass, heart rate, adverse effects; format: in vivo, human
Experimental: A 14-day washout period separated the two phases. Subjects were randomly assigned to begin either the quercetin or the placebo phase first. […] Clinic visits were conducted on overnight-fasted subjects in the morning hours at the beginning and end of the placebo and quercetin supplementation phases. Subjects were instructed not to exercise prior to their appointments. […] Blood pressure was a primary outcome variable and was obtained at each clinic visit by a trained observer using an Omron random zero automatic blood pressure analyzer as previously described (35). Each participant sat quietly for 5-10 minutes, after which their arm was placed at heart level and blood pressure and pulse rate were determined at least three times in 3-5 minute intervals. If blood pressure varied among these determinations by more than 10 mmHg, three additional trials were performed. The accumulated measurements then were averaged to determine overall systolic and diastolic pressure and pulse rate for each subject. Nearly 1000 patients were interviewed and screened for eligibility. […] From this initial screening, 204 were evaluated in more detail at a subsequent clinic visit to determine if all inclusion/exclusion criteria were met, and that blood pressure was within the study limits (FIG. 6). […]

[6] = 30 mg/kg quercetin (p.o.) in rats (ref. 61); cited from earlier work
[7] = test system: spontaneously hypertensive rats; assay: Blood pressure in spontaneously hypertensive (SH) rats; format: in vivo, rat
Experimental: As described herein, this strain is well documented to have normal blood pressure until about 5-6 weeks of age (Makita and Yasuda, 1990). After about 5-6 weeks, the rats suffer from steadily increasing blood pressure from about 6 weeks of age until peaking at about 12-15 weeks of age.
Blood pressure was measured in SHR and SHRQ rats by lightly anesthetizing the animals using ketamine/xylazine (75/3.75 mg/kg i.p.). Rats were prewarmed for 15 minutes on heated platform and blood pressure was measured using a Visitech BP 2000 blood pressure system. Pressure measurements are reported as the average of between 4 and 8 separate measurements taken over a 70 second period. All rats fully recovered within […] after receiving anesthesia.
Blood pressure blood pressure was measured for each group at 6, 7.5, 9 and 10 weeks. Dietary supplement was initiated at 5 weeks and maintained throughout the experiment.
In a separate experiment using SH rats (dietary supplement was likewise initiated at 5 weeks), blood pressure was measured at 17 weeks.

[8] = both groups of hypertensive subjects
[9] = 1.5 g/kg chow quercetin from 5 weeks of age, measured at 6 to 10 weeks, vs control diet

O=c1c(O)c(-c2ccc(O)c(O)c2)oc2cc(O)cc(O)c12 [quercetin, 3,5,7,3′,4′-pentahydroxyflavone]
fasting plasma PAR, quercetin supplementation vs. placebo [1, 8]: not altered
PAR, Endpoint ([1]; prehypertensive (n=10), baseline 279 ± 48): 266 ± 32 pg/mL
PAR, Endpoint ([1]; stage 1 hypertensive (n=8), baseline 258 ± 55): 281 ± 74 pg/mL
Fasting blood glucose levels [2]: unchanged
fasting urinary 8-isoprostane F2α concentration, quercetin supplementation vs. placebo (8-isoprostane F2α; [8]): not altered
Urinary Isoprostane, Endpoint (8-isoprostane F2α; prehypertensive (n=10), baseline 518 ± 55): 520 ± 75 ng/g creatine
Urinary Isoprostane, Endpoint (8-isoprostane F2α; stage 1 hypertensive (n=8), baseline 822 ± 249): 549 ± 59 ng/g creatine
Activation of PKC α, βI, ε, or δ isoforms (PKC α, βI, ε, δ): no significant differences
cardiac hypertrophy [3]: prevented cardiac hypertrophy
fasting plasma FRAP, quercetin supplementation vs. placebo [4, 8]: not altered
FRAP, Endpoint ([4]; prehypertensive (n=10), baseline 1080 ± 48): 1106 ± 61 µmol/L
FRAP, Endpoint ([4]; stage 1 hypertensive (n=8), baseline 1056 ± 59): 1152 ± 69 µmol/L
adverse effects ([5]; 730 mg quercetin/day, 4 weeks, during the course of the study): No adverse effects
Heart rate ([5]; throughout the study (data not shown)): unchanged
hypertensive response to i.v. administration of angiotensin II [6]: significantly blunted the hypertensive response
onset of hypertension ([7]; 1.5 g quercetin/kg diet from 5 weeks of age): delayed the onset of hypertension
diastolic pressure [7, 9]: did not show a statistically significant changed
mean arterial pressure [7, 9]: did not show a statistically significant changed
systolic blood pressure [7, 9]: decreased systolic blood pressure
blood pressure at 17 weeks ([7]; separate experiment, supplement from 5 weeks, control vs quercetin treated): No significant difference in blood pressure
